Common to all, as to format: cell-based
Assay [1] concerns the target protein kinases (human kinome) (Homo sapiens, UniProt P54819). Particulars: AK2 (P54819).
Assay [2] has as its target T1, protein kinases (human kinome) (Homo sapiens, UniProt Q9NRH2).
T1 sequence (Q9NRH2 1-765): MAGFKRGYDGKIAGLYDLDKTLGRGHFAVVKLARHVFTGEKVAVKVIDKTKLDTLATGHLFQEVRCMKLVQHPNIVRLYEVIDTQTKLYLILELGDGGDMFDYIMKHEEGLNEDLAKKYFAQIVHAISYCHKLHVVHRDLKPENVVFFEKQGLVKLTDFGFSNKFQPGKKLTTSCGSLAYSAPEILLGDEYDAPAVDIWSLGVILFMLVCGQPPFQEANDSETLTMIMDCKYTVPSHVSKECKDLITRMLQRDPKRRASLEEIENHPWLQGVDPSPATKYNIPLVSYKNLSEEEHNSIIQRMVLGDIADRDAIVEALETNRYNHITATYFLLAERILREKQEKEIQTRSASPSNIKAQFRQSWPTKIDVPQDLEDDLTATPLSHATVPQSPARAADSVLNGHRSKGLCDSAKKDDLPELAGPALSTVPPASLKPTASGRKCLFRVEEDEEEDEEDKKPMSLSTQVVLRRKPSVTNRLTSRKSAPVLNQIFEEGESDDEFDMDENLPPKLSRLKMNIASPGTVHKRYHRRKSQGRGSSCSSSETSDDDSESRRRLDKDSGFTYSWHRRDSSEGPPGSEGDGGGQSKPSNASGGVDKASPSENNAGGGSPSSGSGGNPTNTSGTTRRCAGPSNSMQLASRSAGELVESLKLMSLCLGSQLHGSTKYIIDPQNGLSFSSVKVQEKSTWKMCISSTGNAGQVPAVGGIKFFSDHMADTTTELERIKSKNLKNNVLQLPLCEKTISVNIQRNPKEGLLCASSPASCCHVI

The target of assay [3] is protein kinases (human kinome) (Homo sapiens, UniProt Q9Y2K2).
protein kinases (human kinome) (Homo sapiens, UniProt Q9Y2K2), sequence (Q9Y2K2 whole entry): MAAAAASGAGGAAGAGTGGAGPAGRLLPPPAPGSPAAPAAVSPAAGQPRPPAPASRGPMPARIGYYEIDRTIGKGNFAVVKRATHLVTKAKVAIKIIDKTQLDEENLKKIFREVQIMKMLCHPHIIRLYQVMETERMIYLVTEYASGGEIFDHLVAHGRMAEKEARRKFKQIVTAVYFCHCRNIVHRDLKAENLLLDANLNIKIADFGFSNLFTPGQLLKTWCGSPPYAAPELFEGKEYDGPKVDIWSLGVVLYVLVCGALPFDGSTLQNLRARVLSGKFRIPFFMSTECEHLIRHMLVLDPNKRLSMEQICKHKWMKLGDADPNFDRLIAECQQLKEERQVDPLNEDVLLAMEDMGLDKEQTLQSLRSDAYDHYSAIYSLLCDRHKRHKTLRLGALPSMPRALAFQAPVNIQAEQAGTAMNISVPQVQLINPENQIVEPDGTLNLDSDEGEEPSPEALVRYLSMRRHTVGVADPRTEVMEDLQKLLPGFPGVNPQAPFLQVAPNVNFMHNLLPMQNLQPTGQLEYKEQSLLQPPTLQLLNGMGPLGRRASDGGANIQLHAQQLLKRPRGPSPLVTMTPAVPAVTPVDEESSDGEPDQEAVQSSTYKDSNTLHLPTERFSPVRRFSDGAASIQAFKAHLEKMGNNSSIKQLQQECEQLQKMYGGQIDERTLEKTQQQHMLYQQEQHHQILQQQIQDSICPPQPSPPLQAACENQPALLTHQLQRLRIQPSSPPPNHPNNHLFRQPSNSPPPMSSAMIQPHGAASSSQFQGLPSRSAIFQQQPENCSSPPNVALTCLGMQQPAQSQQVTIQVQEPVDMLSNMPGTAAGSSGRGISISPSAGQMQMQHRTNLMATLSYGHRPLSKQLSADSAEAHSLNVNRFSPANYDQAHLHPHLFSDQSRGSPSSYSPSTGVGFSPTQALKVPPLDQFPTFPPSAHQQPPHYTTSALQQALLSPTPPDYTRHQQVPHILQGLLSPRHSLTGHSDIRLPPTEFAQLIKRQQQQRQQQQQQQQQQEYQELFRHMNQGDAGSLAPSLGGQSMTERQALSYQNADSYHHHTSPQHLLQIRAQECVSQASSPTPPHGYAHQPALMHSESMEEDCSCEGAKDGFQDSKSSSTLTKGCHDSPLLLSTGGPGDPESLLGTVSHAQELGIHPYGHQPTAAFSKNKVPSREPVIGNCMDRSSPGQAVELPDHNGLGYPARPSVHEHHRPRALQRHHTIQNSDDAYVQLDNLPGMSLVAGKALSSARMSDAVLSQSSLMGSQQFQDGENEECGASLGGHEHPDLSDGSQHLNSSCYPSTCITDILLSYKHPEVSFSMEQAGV
Assay [4] deals with protein kinases (human kinome) (Homo sapiens, UniProt Q00536). The conditions noted are these: Experiment wp195.
protein kinases (human kinome) (Homo sapiens, UniProt Q00536), sequence (Q00536 whole entry): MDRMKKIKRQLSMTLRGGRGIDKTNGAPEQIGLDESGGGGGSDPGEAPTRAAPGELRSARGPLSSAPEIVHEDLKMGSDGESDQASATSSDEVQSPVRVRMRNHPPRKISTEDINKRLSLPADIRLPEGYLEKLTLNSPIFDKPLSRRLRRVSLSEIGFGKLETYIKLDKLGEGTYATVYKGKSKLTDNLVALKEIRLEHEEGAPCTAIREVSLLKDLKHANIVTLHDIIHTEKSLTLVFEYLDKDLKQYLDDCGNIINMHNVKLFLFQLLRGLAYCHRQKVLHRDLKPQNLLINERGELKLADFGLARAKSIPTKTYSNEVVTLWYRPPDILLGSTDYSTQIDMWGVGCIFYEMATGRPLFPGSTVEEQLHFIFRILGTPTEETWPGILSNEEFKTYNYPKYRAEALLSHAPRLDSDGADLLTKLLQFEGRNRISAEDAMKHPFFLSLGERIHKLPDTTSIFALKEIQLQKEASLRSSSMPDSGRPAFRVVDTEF
The target of assay [5] is protein kinases (human kinome) (Homo sapiens, UniProt O43353). The conditions noted are these: for logFC: RIPK2 (O43353-1).
protein kinases (human kinome) (Homo sapiens, UniProt O43353), sequence (O43353 whole entry): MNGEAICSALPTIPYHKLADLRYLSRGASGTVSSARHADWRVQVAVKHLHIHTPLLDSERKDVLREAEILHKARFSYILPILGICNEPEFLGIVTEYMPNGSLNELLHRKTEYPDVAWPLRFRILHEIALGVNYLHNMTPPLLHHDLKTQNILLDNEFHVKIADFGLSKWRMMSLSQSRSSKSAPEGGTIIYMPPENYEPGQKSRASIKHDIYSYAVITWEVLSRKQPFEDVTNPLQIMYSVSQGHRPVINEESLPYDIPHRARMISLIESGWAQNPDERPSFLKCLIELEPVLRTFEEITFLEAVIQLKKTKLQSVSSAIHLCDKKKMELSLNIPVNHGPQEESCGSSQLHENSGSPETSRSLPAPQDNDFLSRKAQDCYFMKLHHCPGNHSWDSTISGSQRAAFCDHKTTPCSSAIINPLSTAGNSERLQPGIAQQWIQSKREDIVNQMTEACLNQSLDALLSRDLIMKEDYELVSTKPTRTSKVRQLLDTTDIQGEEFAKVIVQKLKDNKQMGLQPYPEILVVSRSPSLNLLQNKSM

Read-outs that look alike come from different tables or passages of the source.

Turning to `CC(=O)c1c(C)c2cnc(Nc3ccc(N4CCN(CCOCCOCCOCCNC(=O)COc5cccc6c5C(=O)N(C5CCC(=O)NC5=O)C6=O)CC4)cn3)nc2n(C2CCCC2)c1=O` (stereo not shown) [BSJ.03.123], the logFC in assay [1] (experiment wp084) is −0.395.
On the same count and under the same terms, the value for `CN(C)C(=O)c1cc2cnc(Nc3ccc(N4CCN(CCCCNC(=O)COc5cccc6c5C(=O)N(C5CCC(=O)NC5=O)C6=O)CC4)cn3)nc2n1C1CCCC1` (stereo not shown) [BSJ.04.132] was −0.3323.
For the compound `Cc1cnc(Nc2ccc(N3CCN(CCCCCCC(=O)N[C@H](C(=O)N4C[C@H](O)C[C@H]4C(=O)N[C@@H](C)c4ccc(-c5scnc5C)cc4)C(C)(C)C)CC3)cc2)nc1Nc1cccc(S(=O)(=O)NC(C)(C)C)c1` [JWG.123], in assay [2] (Experiment wp195), the “logFC of SNRK (Q9NRH2)” value is listed as −1.197. This compound also gave a logFC in assay [2] (SNRK (Q9NRH2), experiment wp195) of −1.197. In addition, the “logFC of SIK3 (Q9Y2K2)” value in assay [3] (Experiment wp195) is reported as −1.322. In addition, the logFC in assay [3] (SIK3 (Q9Y2K2), experiment wp195) is −1.322. For the same compound, in assay [4], the “logFC CDK16 (Q00536-1)” value is −0.5026 and the “logFC of CDK16 (Q00536-1)” value is reported as −0.5026.
In the case of `Cc1ccc(C(=O)Nc2ccc(CN3CCN(CCCOCCOCCOCCNC(=O)COc4cccc5c4C(=O)N(C4CCC(=O)NC4=O)C5=O)CC3)c(C(F)(F)F)c2)cc1C#Cc1cnc2cccnn12` (stereo not shown) [SB1.G.187], the logFC in assay [1] (experiment wp056) was −0.3691; in assay [5] (experiment wp105), −0.572; in assay [5] (experiment wp114), −0.8828. The “logFC of RIPK2 (O43353-1)” value in assay [5] (Experiment wp114) is listed as −0.8828; in assay [5] (experiment wp105), −0.572.
